Laboratory results: US6737383B1, “Herbicidal oxadiazolidines” (priority 1999, dated 2004)

What was measured:
blackgrass [1] = test: Test E blackgrass; format: in vivo, Alopecurus myosuroides; settings: Preemergence
goosegrass = test: Test D goosegrass; format: in vivo, Eleusine indica; settings: Postemergence, 0 to 100 scale
surinam grass = test: Test B pre/postemergence surinam grass; format: in vivo, Brachiaria decumbens
Summary of the method: (§1)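 Response is a visual 0-to-10 score relative to untreated plants, where 0 means no effect and 10 means complete control, taken twelve to sixteen days after application. Treatments went onto soil at planting and onto foliage of 1- to 4-leaf plants, using a surfactant-containing non-phytotoxic solvent.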

wild oat = test: Test E wild oat; format: in vivo, Avena fatua; settings: Preemergence
winter barley = test: Test E winter barley; format: in vivo, Hordeum vulgare; settings: Preemergence
winter wheat [2] = test: Test E winter wheat; format: in vivo, Triticum aestivum; settings: Preemergence
smallflower flatsedge = test: Test B flood test smallflower flatsedge; format: in vivo, Cyperus difformis
Summary of the method: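 Read-out is a visual response score from 0 (no effect) to 10 (complete control), assigned by comparison with untreated controls. Treatment was applied at the 2-leaf stage, and plants stayed in the greenhouse for twelve to sixteen days before scoring.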

Italian ryegrass = test: Test E Italian ryegrass; format: in vivo, Lolium multiflorum; settings: Preemergence
Green foxtail [3] = test: Test D green foxtail; format: in vivo; settings: Rate 250 g/ha; Postemergence; 0 to 100 scale
bedstraw = test: Test B pre/postemergence bedstraw; format: in vivo, Galium aparine
Summary of the method: as §1

winter wheat [4] = test: Test E winter wheat; format: in vivo, Triticum aestivum; settings: Postemergence; for Plant response rating, Wheat (winter): 0 to 100 scale, 0 is no effect, 100 is complete control
Summary of the method: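 Postemergence: 60:40 sandy loam/greenhouse potting mix, 1- to 4-leaf stage. Formulation: solvent plus surfactant. Assessment: visual comparison with untreated controls at ~21–28 days.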

Green foxtail [5] = test: Test D green foxtail; format: in vivo; settings: Postemergence, 0 to 100 scale, 0 no injury, 100 complete control
blackgrass [6] = test: Test B pre/postemergence blackgrass; format: in vivo, Alopecurus myosuroides
Summary of the method: as §1

Green foxtail [7] = test: Test D green foxtail; format: in vivo; settings: Postemergence, 0 to 100 scale, 0 no injury, 100 complete control; remark: listed apart in the source
green foxtail [8] = test: Test E green foxtail; format: in vivo, Setaria viridis; settings: Preemergence
[9] = Rate 125 g/ha, 0 to 100 scale (0 no effect, 100 complete control)
[10] = Rate 500 g/ha, 0 to 100 scale where 0 is no effect and 100 is complete control
[11] = Preemergence, Rate 62 g/ha, scale of 0 to 10 where 0 is no effect and 10 is complete control
[12] = Preemergence, Rate 250 g/ha, scale of 0 to 10 where 0 is no effect and 10 is complete control
[13] = Preemergence, Rate 500 g/ha, scale of 0 to 10 where 0 is no effect and 10 is complete control
[14] = Rate 62 g/ha, Postemergence, scale of 0 to 10 where 0 is no effect and 10 is complete control
[15] = Rate 125 g/ha, Preemergence, scale of 0 to 10 where 0 is no effect and 10 is complete control
[16] = Rate 500 g/ha, Postemergence, scale 0 to 10, 0 no effect, 10 complete control
[17] = Rate 125 g/ha, Postemergence, scale 0 to 10

`CC(C)N(C(=O)n1oc(=O)n(C2CC2)c1=O)c1ccccc1` [Compound 243] was tested, and the “Plant response rating, Blackgrass” value (blackgrass [1]; [9]) was 65, the “Blackgrass plant response rating (0 to 100 scale)” value (blackgrass [1]; Rate 250 g/ha) was 85 and the “Plant response rating, Blackgrass” value (blackgrass [1]; [10]) was 100. For the same compound, the “Plant response rating, Goosegrass” value (goosegrass; Rate 16 g/ha, 0 no injury, 100 complete control) was 70, the “Plant response rating, Goosegrass” value (goosegrass; Rate 32 g/ha, 0 no injury, 100 complete control) was 80 and the “Plant response rating, Goosegrass” value (goosegrass; Rate 64 g/ha, 0 no injury, 100 complete control) was 100. For the same compound, the “Plant response rating, Goosegrass” value (goosegrass; Rate 125 g/ha, 0 no injury, 100 complete control) was 100, the “Plant response rating, Goosegrass” value (goosegrass; Rate 250 g/ha) was 100 and the “B. signalgrass plant response rating” value (surinam grass; [11]) was 4. The “B. signalgrass plant response rating” value (surinam grass; [12]) was 7, the “Plant response rating, B. signalgrass” value (surinam grass; [13]) was 10 and the “B. signalgrass plant response rating” value (surinam grass; [14]) was 0. For the same compound, the “B. signalgrass plant response rating” value (surinam grass; Rate 125 g/ha, Postemergence, scale 0 (no effect) to 10 (complete control)) was 4, the “B. signalgrass plant response rating” value (surinam grass; [15]) was 5 and the “Plant response rating (0 to 10; 0 is no effect, 10 is complete control), B. signalgrass” value (surinam grass; Rate 250 g/ha, Postemergence) was 9. For the same compound, the “B. signalgrass plant response rating” value (surinam grass; [16]) was 9, the “Plant response rating, Wild oat” value (wild oat; [9]) was 60 and the “Wild oat plant response rating (0 to 100 scale)” value (wild oat; Rate 250 g/ha) was 55. The “Plant response rating, Wild oat” value (wild oat; [10]) was 90, the “Plant response rating, Barley (winter)” value (winter barley; [9]) was 30 and the “Barley (winter) plant response rating (0 to 100 scale)” value (winter barley; Rate 250 g/ha) was 60. For the same compound, the “Plant response rating, Barley (winter)” value (winter barley; [10]) was 70, the “Plant response rating, Wheat (winter)” value (winter wheat [2]; [9]) was 50 and the “Wheat (winter) plant response rating (0 to 100 scale)” value (winter wheat [2]; Rate 250 g/ha) was 70. For the same compound, the “Plant response rating, Wheat (winter)” value (winter wheat [2]; [10]) was 75, the “S. Flatsedge plant response rating” value (smallflower flatsedge; Rate 62 g/ha, headed Pre-emergence (flood test species), scale 0 to 10 (0 no effect, 10 complete control)) was 0 and the “S. Flatsedge plant response rating” value (smallflower flatsedge; Rate 125 g/ha, Pre-emergence, flood test species, scale 0 to 10 where 0 is no effect and 10 is complete control) was 0. The “S. Flatsedge plant response rating” value (smallflower flatsedge; Rate 250 g/ha, Pre-emergence, flood-test species, scale 0 to 10, 0 is no effect, 10 is complete control) was 0, the “S. Flatsedge plant response rating” value (smallflower flatsedge; Rate 500 g/ha, Pre-emergence, flood test species, scale 0 to 10 (0 no effect, 10 complete control)) was 0 and the “Plant response rating, I. Ryegrass” value (Italian ryegrass; [9]) was 70. The “I. Ryegrass plant response rating (0 to 100 scale)” value (Italian ryegrass; Rate 250 g/ha) was 85, the “Plant response rating, I. Ryegrass” value (Italian ryegrass; [10]) was 100 and the “Plant response rating, Green foxtail” value (Green foxtail [3]) was 100. The “Bedstraw plant response rating” value (bedstraw; [11]) was 0, the “Bedstraw plant response rating” value (bedstraw; [12]) was 5 and the “Plant response rating, Bedstraw” value (bedstraw; [13]) was 9. The “Bedstraw plant response rating” value (bedstraw; [14]) was 0, the “Bedstraw plant response rating” value (bedstraw; [17]) was 4 and the “Bedstraw plant response rating” value (bedstraw; [15]) was 0. The “Plant response rating (0 to 10; 0 is no effect, 10 is complete control), Bedstraw” value (bedstraw; Rate 250 g/ha, Postemergence) was 5, the “Bedstraw plant response rating” value (bedstraw; [16]) was 5 and the “Plant response rating, Wheat (winter)” value (winter wheat [4]; Rate 125 g/ha) was 70. The “Wheat (winter) plant response rating” value (winter wheat [4]; Rate 250 g/ha, 0 to 100 scale where 0 is no effect and 100 is complete control) was 75, the “Plant response rating, Wheat (winter)” value (winter wheat [4]; Rate 500 g/ha) was 80 and the “Plant response rating, Green foxtail” value (Green foxtail [5]; Rate 64 g/ha) was 100. For the same compound, the “Plant response rating, Green foxtail” value (Green foxtail [5]; Rate 125 g/ha) was 100, the “Blackgrass plant response rating” value (blackgrass [6]; [11]) was 8 and the “Blackgrass plant response rating” value (blackgrass [6]; [12]) was 10. For the same compound, the “Plant response rating, Blackgrass” value (blackgrass [6]; [13]) was 10, the “Blackgrass plant response rating” value (blackgrass [6]; [14]) was 7 and the “Blackgrass plant response rating” value (blackgrass [6]; [17]) was 8. For the same compound, the “Blackgrass plant response rating” value (blackgrass [6]; [15]) was 10, the “Plant response rating (0 to 10; 0 is no effect, 10 is complete control), Blackgrass” value (blackgrass [6]; Rate 250 g/ha, Postemergence) was 9 and the “Blackgrass plant response rating” value (blackgrass [6]; [16]) was 9. For the same compound, the “Green foxtail plant response rating” value (Green foxtail [7]; Rate 64 g/ha) was 100, the “Green foxtail plant response rating” value (Green foxtail [7]; Rate 125 g/ha) was 100 and the “Plant response rating, Green foxtail” value (green foxtail [8]; [9]) was 75. For the same compound, the “Green foxtail plant response rating (0 to 100 scale)” value (green foxtail [8]; Rate 250 g/ha) was 100 and the “Plant response rating, Green foxtail” value (green foxtail [8]; [10]) was 100.
